Each compound was assayed on Plasmodium falciparum (assay: GSK_TCMDC: Inhibition of Plasmodium falciparum 3D7 in whole erythrocytes, using parasite LDH activity as an index of growth.). Conditions: Plasmodium falciparum, 3D7.
Type: functional, organism-based

Row | Compound | XC50 [nM]
1 | CN(CCN)Cc1cccc(-c2ccc(-c3nc4cc(C(F)(F)F)ccc4[nH]3)s2)c1 | 997
2 | COC(C(=O)OCCC1CCCN1C)(c1ccccc1)C1CCCCC1 (centres undefined) | 711
3 | O=[N+]([O-])c1ccc2nc(Nc3ccc(Cl)c(Cl)c3)c(Nc3ccc(Cl)c(Cl)c3)nc2c1 | 793
4 | Nc1nccc2ccc(-c3ccnc(NCc4cccnc4)n3)cc12 | 462
5 | COc1cc2nc(N(C)C)nc(Nc3ccc4c(cnn4Cc4ccccc4)c3)c2cc1OC | 44
6 | CCOc1ccc(C(C)NC(=O)Cc2ccccc2F)cc1OCC (centres undefined) | 844
7 | COCCOCCOCCn1ccc2c3c(N)nc(N)nc3ccc21 | 263
8 | CN(Cc1ccc(-c2ccc(C(F)(F)F)cc2)cc1)C(=O)Cn1c(CCc2cccc(F)c2F)cc(=O)c2ccc(OCC3CCCN3C)cc21 (centres undefined) | 1070
9 | COc1cccc(C2CCN(CCN3CCC(CNC(=O)c4ccc(-c5ccc(C(F)(F)F)cc5)cc4)CC3)CC2)c1 | 886
10 | CN(Cc1cnc2nc(N)nc(N)c2n1)c1ccc(C(=O)N[C@H](CCC(=O)OC(C)(C)C)C(=O)N[C@@H](CCC(=O)OC(C)(C)C)C(=O)OC(C)(C)C)cc1 | 1020
11 | CNS(=O)(=O)CCNCc1ccc(-c2ccc3ncnc(Nc4ccc(OCc5ccccc5)cc4)c3c2)o1 | 729
12 | Cc1cc2c(NC(=O)NC3CCN(CCc4cccc(Cl)c4)CC3)cccc2cn1 | 370
13 | CC(=O)Nc1ccccc1OCc1cc2cc(C(=O)N3CCC(N4C(=O)OCc5ccccc54)CC3)ccc2o1 | 236
14 | CCOC(=O)c1ccc(NC(=O)Nc2ccc(Cn3ncc(N4CCCNCC4)c(Cl)c3=O)cc2)cc1 | 443
15 | CCCCCCNC(=O)C1Cc2c([nH]c3ccc(C)cc23)C2(CCN(CCc3ccccc3)CC2)N1 (centres undefined) | 1270
16 | Cc1ccc(-c2nnc3c4ccccc4c(C)nn23)cc1S(=O)(=O)N1CCN(CCO)CC1 | 669
17 | CCNc1cc(C(=O)N[C@@H](Cc2ccccc2)[C@H](O)CNCc2cccc(-n3ccnc3)c2)cc(N2CCCC2=O)c1 | 635
18 | COc1cccc(C(=O)NCc2cccs2)c1Oc1ccccc1 | 63.5
19 | O=C(NCCCCCN1CCC(c2c[nH]c3ccccc23)CC1)Nc1cccc(I)c1 | 993
20 | O=C(N[C@@H](CC1CCCCC1)C(=O)NCCN1CCCC1)c1ccc(O)c(-c2cccc(C(F)(F)F)c2)c1 | 760
21 | COC(=O)c1cccc(CNCc2cccc(-c3csc(-c4nc5ccccc5[nH]4)c3)c2)c1 | 693
22 | CC(C)Cn1c(Sc2ccc(C#N)c([N+](=O)[O-])c2)nnc1-c1cccs1 | 1080
23 | CC(=O)Nc1ccc(CN2CCC(NC(=O)c3ccc(-c4ccc(N(C)C)cc4)s3)CC2)cc1 | 869
24 | Cc1cccc2nc(-c3cccc(-c4ccc(NC(=O)COC(C)C)cc4)c3)[nH]c12 | 1190

Row | Compound | XC50 [nM]
25 | C[C@@H]1CC[C@H](NC(=O)[C@H](CC2CCCC2)NC(=O)N2CCNCC2)C(=O)CN1S(=O)(=O)c1ccccn1 | 891
26 | Cc1ccc(Nc2nccc(N(C)c3ccc4c(c3)nc(NC(=O)Cc3ccc(Cl)c(Cl)c3)n4C)n2)cc1S(N)(=O)=O | 1110
27 | CCN(CC)CCN(Cc1ccc(-c2ccc(C(F)(F)F)cc2)cc1)C(=O)Cn1c(SCc2ccc(F)cc2)cc(=O)c2ccccc21 | 752
28 | COc1cc(C)nc2ccc(NC(=O)Nc3ccc4nc(C)cc(OC)c4c3)cc12 | 548
29 | COc1ccc(OC)c(C=CC(=O)NC2CCC(CN3CCC(c4c[nH]c5ccccc45)CC3)CC2)c1 (centres undefined) | 653
30 | CC(Cc1ccc(C2=CCNCC2)cc1)NCC(O)c1cccc(C(F)(F)F)c1 (centres undefined) | 1570
31 | CCC1CN(CCCn2c3ccccc3c3ccccc32)C(CC)CN1 (centres undefined) | 1080
32 | Cc1cccc2nc(-c3cccc(-c4cccc(NC(=O)NCc5ccccc5)c4)c3)[nH]c12 | 521
33 | Cc1cc(CN2CCC(N3CC(c4ccccc4)(c4ccccc4)OCC3=O)C2)ccc1O (centres undefined) | 1080
34 | COc1cccc(NC(=O)Nc2cc(-c3ccc4[nH]ncc4c3)cc3c2CNC3=O)c1 | 117
35 | O=[N+]([O-])c1cccc(CNCC2CCN(Cc3ccc(Cl)c(Cl)c3)CC2)c1 | 913
36 | COc1ccc(C=C2SC(=N)N(c3ccccc3OC)C2=O)cc1 | 300
37 | Nc1nc(N)c2cc(NC(=O)c3ccc(Cl)c(Cl)c3)ccc2n1 | 146
38 | Oc1ccccc1CN1CCCC(COC(c2ccc(F)cc2)c2ccc(F)cc2)C1 (centres undefined) | 775
39 | CC(Cc1ccc(NC(=O)c2ccc(CC(C)NCc3ccc(Cl)cc3)cc2)cc1)NCCc1cccc(Cl)c1 (centres undefined) | 450
40 | Fc1ccccc1COc1ccc(Nc2ncnc3ccc(-c4nnc(C(F)(F)F)o4)cc23)cc1Cl | 731
41 | O=C(/C=C/c1ccc(Cl)c(Cl)c1)N1CCC(CCN2CCC(c3c[nH]c4cnccc34)CC2)CC1 | 119
42 | COc1cc(OC)cc(-c2nn(-c3ccc([N+](=O)[O-])cc3Cl)c(=S)n2CC2CCCO2)c1 (centres undefined) | 961
43 | Cc1cc(C=C2SC(=Nc3ccccc3)N(C3CCCC3)C2=O)c(C)n1-c1ccc(Cl)cc1 | 876
44 | O=C(CCC(=O)c1ccc2c3c(cccc13)CC2)NC1CCC(CN2CCC(c3c[nH]c4ccccc34)CC2)CC1 (centres undefined) | 918
45 | CCCCCCNC(=O)C1Cc2c([nH]c3cc(Cl)ccc23)C2(CCN(Cc3ccccc3)CC2)N1 (centres undefined) | 903
46 | Cc1nnsc1C(=O)Nc1ccc(-c2cccc(-c3nc4cc(C(F)(F)F)ccc4[nH]3)c2)cc1 | 838
47 | CN1CCCc2ccc(NC(=O)C=Cc3ccc(-c4ccc(F)cc4F)o3)cc2C1 | 522
48 | CN1CCC(c2c[nH]c3ccc(NC(=O)Nc4ccc(-c5ccncc5)c(Cl)c4Cl)cc23)CC1 | 696

Row | Compound | XC50 [nM]
49 | Cc1cc(N[C@@H](CC(C)C)C(=O)NCc2cccc(F)c2)nc(NCCc2ccccc2)n1 | 1080
50 | CC(C)N1CCN(C(CN2CCN(CCCOc3ccc(-c4ccccc4)cc3)CC2)c2ccc(F)cc2)CC1 (centres undefined) | 678
51 | NCc1ccc(-c2ccc3c(N)nccc3c2)cc1 | 885
52 | COc1ccc2nccc(NC(=O)CNCc3ccc(-c4ccccc4)cc3)c2c1 | 769
53 | Cc1cc2c3c(N)nc(N)nc3ccc2n1C(C)C | 8.52
54 | COc1ccc(-c2ccc(NC(=O)c3ccc(C#N)cc3)cc2)cc1CN(C)CCO | 629
55 | CCN(CC)CCCNc1nccc(N(C)c2ccc(NC(=O)Nc3cc(C(F)(F)F)ccc3F)cc2)n1 | 1050
56 | COc1ccc2nccc(N(C)CC3(O)CCC(NCc4cc5c(cn4)OCCO5)CC3)c2n1 (centres undefined) | 675
57 | Cc1[nH]c2ccc(O)cc2c1C1CCN(CC2CCC(NC(=O)/C=C/c3c(Cl)cccc3Cl)CC2)CC1 (centres undefined) | 817
58 | Cc1cccc2nc(-c3cccc(-c4cccc(NC(=O)CCc5c[nH]cn5)c4)c3)[nH]c12 | 553
59 | O=C(Nc1cccc(-c2ccc(-c3nc4cc(F)ccc4[nH]3)cc2)c1)Nc1ccc(Cl)c(Cl)c1 | 139
60 | CO/C(=C\C=C\c1cc2cc(Cl)c(Cl)cc2[nH]1)C(=O)NCCCN1CCN(c2cccc(CCCO)c2)CC1 | 1030
61 | COc1cc(C2CCCCC2)c(OC)cc1CC1c2cc(O)c(Cl)cc2CCN1C (centres undefined) | 449
62 | CCCOc1ccc(-c2nonc2NC(=O)c2cccc(OC)c2)cc1OCCC | 1150
63 | COc1ccc2c(O)c(Br)c(C)nc2c1 | 192
64 | C=CCNC(=O)C(C)c1ccc2cc(OC)ccc2c1 (centres undefined) | 420
65 | O=C(Nc1ccccc1Br)N[C@@H]1CCN(c2ccnc3ccccc23)C1 | 935
66 | Nc1nc(Nc2ccc(Cl)cc2)nc2ccccc12 | 732
67 | N#CC1(c2ccccc2)CCN(c2nc(NCCCN3CCCC3=O)nc(N3CCCC4CCCCC43)n2)CC1 (centres undefined) | 864
68 | OCCNc1nc(Nc2ccccc2)nc2ccccc12 | 128
69 | N#Cc1ccc(N2C[C@@H](OCc3ccccc3)C[C@H]2C(=O)NCCC(c2ccccc2)c2ccccc2)c2ccccc12 | 856
70 | CCOC(=O)c1ccc(NC(=O)Nc2cccc(-c3ccc(-c4nc5cccc(C)c5[nH]4)s3)c2)cc1 | 144
71 | O=C(Nc1ccc(Cl)cc1)Nc1nc2cc([N+](=O)[O-])ccc2[nH]1 | 801
72 | O=C(NC1CCCCC1)C1CCCN(C(=O)c2ccc(O)c(-c3ccc(Cl)c(Cl)c3)c2)C1 (centres undefined) | 903

Row | Compound | XC50 [nM]
73 | COc1ccc(-c2cnc3ccc(NCCCO)nn23)cc1OC | 672
74 | O=C(COc1ccc(Cl)cc1)N1CCC(CN2CCC(c3c[nH]c4ccccc34)CC2)CC1 | 1100
75 | N#Cc1ccc(N2CCN(Cc3cccc(-c4cccc(-c5nc6cc(C(F)(F)F)ccc6[nH]5)c4)c3)CC2)nc1 | 962
76 | Clc1ccc2nccc(N3CCC(CN4CCC(c5c[nH]c6ccccc56)CC4)CC3)c2c1 | 33.9
77 | Oc1ccc2nc(N3CCNCC3)nc(NCCCc3ccccc3)c2c1 | 1370
78 | CC(=O)N(Cc1cccc(-c2cccc(CNCc3ccc4c(c3)OCO4)c2)c1)C1CCN(Cc2ccccc2)CC1 | 839
79 | COc1ccc(CNc2cc(C)nc3sc4c(c23)CCC2(C4)OCCO2)cc1 | 953
80 | CCN(CC)CCCNc1ncc2c(-c3ccc(NC(=O)Nc4cc(C(F)(F)F)ccc4F)c(F)c3)nn(C)c2n1 | 272
81 | CC[C@H](C)CNC(=O)c1cncc(-c2ccc(CNC3Cc4ccccc4C3)cc2)c1 | 829
82 | COc1cc2nc(N3CCC(CNC(=O)c4ccc(-c5ccc(C(=O)N(C)C)cc5OCCN(C)C)cc4)CC3)nc(N)c2cc1OC | 842
83 | CC(C)C[C@H](NC(=O)c1cc2ccccc2s1)C(=O)N[C@H]1CCN(Cc2ccc(OCCCN(C)C)c(Cl)c2)C1 | 901
84 | Cn1cnc2c(SCc3ccccc3OCc3ccccc3)ncnc21 | 922
85 | CSc1cccc(Nc2nc3ccc(S(=O)(=O)NC(C)C(C)C)cc3n2[C@H](C)C(C)(C)C)c1 (some centres undefined) | 446
86 | O=C(c1cc2c(s1)-c1cccc(Cl)c1SC2)N1CCN(c2ccncc2)CC1 | 1010
87 | CC(C)c1ccc(-c2noc(SCC(=O)N(C)c3ccc(F)cc3)n2)cc1 | 1170
88 | Cn1c(NCc2cc(F)cc3c2OCOC3)nc2cc(Nc3ccnc(Nc4cccc(CS(C)(=O)=O)c4)n3)ccc21 | 149
89 | Cc1nc2ccc(S(=O)(=O)Nc3ccc(C(=O)N[C@@H](CCC(=O)O)C(=O)O)cc3)cc2c(=O)[nH]1 | 1010
90 | CC(C)(C)c1ccc(CN2CCC(CNC(=O)c3cc(-c4cccc(C(F)(F)F)c4)cs3)C2)cc1 (centres undefined) | 1030
91 | CCNc1cc(C(=O)N[C@@H](Cc2ccccc2)[C@H](O)CNC2CCC(C(C)(C)C)CC2)cc(N2CCCC2=O)c1 (some centres undefined) | 444
92 | CN(Cc1cc(C(F)(F)F)cc(C(F)(F)F)c1)C(=O)C1CNCC1c1ccc(F)cc1 (centres undefined) | 828
93 | Oc1cc(NCCCNC2CCc3c(Cl)cc(Cl)cc32)nc2ccccc12 (centres undefined) | 934
94 | CSC1=NC(C)(C)CC2(CC(c3cccc(C)c3)c3cc(Cl)c(O)cc3O2)N1 (centres undefined) | 879

— ChEMBL document CHEMBL1157539, “Thousands of chemical starting points for antimalarial lead identification” (Nature, 2010)
